Measured values reported in patent US20190284136A1, “INDOLINE DERIVATIVES” (ViiV HEALTHCARE UK LIMITED, priority 2016, published 2019).

Tested on: HIV
Assay: Table 1 IC50 of the examples (assay method not given; patent concerns inhibiting HIV replication)
Type: cell-based
Details: not given

`COc1c(F)cccc1C(=O)N1CCc2c1cc(C)c([C@H](OC(C)(C)C)C(=O)O)c2-c1cc(F)c2c(c1C)CCCO2` (atropisomer, axis not shown) [Example 45, (S)-2-(tert-Butoxy)-2-((R)-1-(3-fluoro-2-methoxybenzoyl)-4-(8-fluoro-5-methylchroman-6-yl)-6-methylindolin-5-yl)acetic acid] was tested. Which IC50 did it give?
Its IC50 is 1 nM.

Same assay, conditions: Human immunodeficiency virus 1

With `Cc1cc2c(c(-c3cc(F)c4c(c3C)CCCO4)c1[C@H](OC(C)(C)C)C(=O)O)CCN2C(=O)c1ccc(C(F)(F)F)cc1` (atropisomer, axis not shown) [Example 46, (S)-2-(tert-Butoxy)-2-((R)-4-(8-fluoro-5-methylchroman-6-yl)-6-methyl-1-(4-(trifluoromethyl)benzoyl)indolin-5-yl)acetic acid] as the compound, how does the IC50 read?
Its IC50 is 4 nM.

With `Cc1cc(Cl)ccc1C(=O)N1CCc2c1cc(C)c([C@H](OC(C)(C)C)C(=O)O)c2-c1cc(F)c2c(c1C)CCCO2` (atropisomer, axis not shown) [Example 47, (S)-2-(tert-Butoxy)-2-((R)-1-(4-chloro-2-methylbenzoyl)-4-(8-fluoro-5-methylchroman-6-yl)-6-methylindolin-5-yl)acetic acid] as the compound, how does the IC50 read?
The IC50 was 4 nM.

Which IC50 does the source give for `Cc1cc(C(=O)N2CCc3c2cc(C)c([C@H](OC(C)(C)C)C(=O)O)c3-c2cc(F)c3c(c2C)CCCO3)ccc1F` (atropisomer, axis not shown) [Example 48, (S)-2-(tert-Butoxy)-2-((R)-1-(4-fluoro-3-methylbenzoyl)-4-(8-fluoro-5-methylchroman-6-yl)-6-methylindolin-5-yl)acetic acid] here?
Its IC50 is 4 nM.

`Cc1cc2c(c(-c3cc(F)c4c(c3C)CCCO4)c1[C@H](OC(C)(C)C)C(=O)O)CCN2C(=O)c1cccc(F)c1Cl` (atropisomer, axis not shown) [Example 49, (S)-2-(tert-Butoxy)-2-((R)-1-(2-chloro-3-fluorobenzoyl)-4-(8-fluoro-5-methylchroman-6-yl)-6-methylindolin-5-yl)acetic acid] was tested. Which IC50 did it give?
Its IC50 is 2 nM.

How did the IC50 turn out when `COc1ccc(Cl)cc1C(=O)N1CCc2c1cc(C)c([C@H](OC(C)(C)C)C(=O)O)c2-c1cc(F)c2c(c1C)CCCO2` (atropisomer, axis not shown) [Example 50, (S)-2-(tert-Butoxy)-2-((R)-1-(5-chloro-2-methoxybenzoyl)-4-(8-fluoro-5-methylchroman-6-yl)-6-methylindolin-5-yl)acetic acid] was run?
Its IC50 is 5 nM.

How did the IC50 turn out when `Cc1cc2c(c(-c3cc(F)c4c(c3C)CCCO4)c1[C@H](OC(C)(C)C)C(=O)O)CCN2C(=O)c1cnccc1Cl` (atropisomer, axis not shown) [Example 51, (S)-2-(tert-Butoxy)-2-((R)-1-(4-chloronicotinoyl)-4-(8-fluoro-5-methylchroman-6-yl)-6-methylindolin-5-yl)acetic acid] was run?
Its IC50 is 17 nM.

Which IC50 does the source give for `Cc1cc2c(c(-c3cc(F)c4c(c3C)CCCO4)c1[C@H](OC(C)(C)C)C(=O)O)CCN2C(=O)c1cccc(Cl)c1` (atropisomer, axis not shown) [Example 52, (S)-2-(tert-Butoxy)-2-((R)-1-(3-chlorobenzoyl)-4-(8-fluoro-5-methylchroman-6-yl)-6-methylindolin-5-yl)acetic acid] here?
The IC50 was 2 nM.

How did the IC50 turn out when `Cc1ccccc1C(=O)N1CCc2c1cc(C)c([C@H](OC(C)(C)C)C(=O)O)c2-c1cc(F)c2c(c1C)CCCO2` (atropisomer, axis not shown) [Example 53, (S)-2-(tert-Butoxy)-2-((R)-4-(8-fluoro-5-methylchroman-6-yl)-6-methyl-1-(2-methylbenzoyl)indolin-5-yl)acetic acid] was run?
Its IC50 is 3 nM.

How did the IC50 turn out when `Cc1cc2c(c(-c3cc(F)c4c(c3C)CCCO4)c1[C@H](OC(C)(C)C)C(=O)O)CCN2C(=O)C1CCCC1` (atropisomer, axis not shown) [Example 54, (S)-2-(tert-Butoxy)-2-((R)-1-(cyclopentanecarbonyl)-4-(8-fluoro-5-methylchroman-6-yl)-6-methylindolin-5-yl)acetic acid] was run?
Its IC50 is 12 nM.

With `Cc1ccc(F)c(C(=O)N2CCc3c2cc(C)c([C@H](OC(C)(C)C)C(=O)O)c3-c2cc(F)c3c(c2C)CCCO3)c1` (atropisomer, axis not shown) [Example 55, (S)-2-(tert-Butoxy)-2-((R)-1-(2-fluoro-5-methylbenzoyl)-4-(8-fluoro-5-methylchroman-6-yl)-6-methylindolin-5-yl)acetic acid] as the compound, how does the IC50 read?
Its IC50 is 6 nM.

`Cc1cc2c(c(-c3cc(F)c4c(c3C)CCCO4)c1[C@H](OC(C)(C)C)C(=O)O)CCN2C(=O)c1ccc(Cl)c(F)c1` (atropisomer, axis not shown) [Example 56, (S)-2-(tert-Butoxy)-2-((R)-1-(4-chloro-3-fluorobenzoyl)-4-(8-fluoro-5-methylchroman-6-yl)-6-methylindolin-5-yl)acetic acid] was tested. Which IC50 did it give?
Its IC50 is 2 nM.

How did the IC50 turn out when `Cc1cc2c(c(-c3cc(F)c4c(c3C)CCCO4)c1[C@H](OC(C)(C)C)C(=O)O)CCN2C(=O)c1cc(F)cc(F)c1` (atropisomer, axis not shown) [Example 57, (S)-2-(tert-Butoxy)-2-((R)-1-(3,5-difluorobenzoyl)-4-(8-fluoro-5-methylchroman-6-yl)-6-methylindolin-5-yl)acetic acid] was run?
The IC50 was 2 nM.

`Cc1cc2c(c(-c3cc(F)c4c(c3C)CCCO4)c1[C@H](OC(C)(C)C)C(=O)O)CCN2C(=O)CCc1ccccc1` (atropisomer, axis not shown) [Example 58, (S)-2-(tert-Butoxy)-2-((R)-4-(8-fluoro-5-methylchroman-6-yl)-6-methyl-1-(3-phenyl/propanoyl)indolin-5-yl)acetic acid] was tested. Which IC50 did it give?
Its IC50 is 41 nM.

For `Cc1cc2c(c(-c3cc(F)c4c(c3C)CCCO4)c1[C@H](OC(C)(C)C)C(=O)O)CCN2C(=O)c1cccc2c1CCCC2` (atropisomer, axis not shown) [Example 59, (S)-2-(tert-Butoxy)-2-((R)-4-(8-fluoro-5-methylchroman-6-yl)-6-methyl-1-(5,6,7,8-tetrahydronaphthalene-1-carbonyl)indolin-5-yl)acetic acid], which IC50 is on record?
The IC50 was 6 nM.

`Cc1cc2c(c(-c3cc(F)c4c(c3C)CCCO4)c1[C@H](OC(C)(C)C)C(=O)O)CCN2C(=O)c1ccc(F)cc1F` (atropisomer, axis not shown) [Example 60, (S)-2-(tert-Butoxy)-2-((R)-1-(2,4-difluorobenzoyl)-4-(8-fluoro-5-methylchroman-6-yl)-6-methylindolin-5-yl)acetic acid] was tested. Which IC50 did it give?
Its IC50 is 6 nM.

How did the IC50 turn out when `Cc1cc2c(c(-c3cc(F)c4c(c3C)CCCO4)c1[C@H](OC(C)(C)C)C(=O)O)CCN2C(=O)c1ccc(Cl)c(Cl)c1` (atropisomer, axis not shown) [Example 61, (S)-2-(tert-Butoxy)-2-((R)-1-(3,4-dichlorobenzoyl)-4-(8-fluoro-5-methylchroman-6-yl)-6-methylindolin-5-yl)acetic acid] was run?
Its IC50 is 17 nM.

`Cc1cc(F)ccc1C(=O)N1CCc2c1cc(C)c([C@H](OC(C)(C)C)C(=O)O)c2-c1cc(F)c2c(c1C)CCCO2` (atropisomer, axis not shown) [Example 62, (S)-2-(tert-Butoxy)-2-((R)-1-(4-fluoro-2-methylbenzoyl)-4-(8-fluoro-5-methylchroman-6-yl)-6-methylindolin-5-yl)acetic acid] was tested. Which IC50 did it give?
Its IC50 is 6 nM.
